Tests used:
Assay in all cases: cells
[1] = system: COLO-792; type: functional, cell-based, Homo sapiens; conditions: Homo sapiens, COLO-792
Description: SANGER: Inhibition of human COLO-792 cell growth in a cell viability assay.

[2] = system: COLO-824; type: functional, cell-based, Homo sapiens; conditions: Homo sapiens, COLO-824
Description: SANGER: Inhibition of human COLO-824 cell growth in a cell viability assay.

[3] = system: COR-L23; type: functional, cell-based, Homo sapiens; conditions: Homo sapiens, COR-L23;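 further: cell viability assay measuring how strongly compounds suppress growth of COR-L23 cells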
Description: SANGER: Inhibition of human COR-L23 cell growth in a cell viability assay.

[4] = system: D-247MG; type: functional, cell-based, Homo sapiens; conditions: Homo sapiens, D-247MG
Description: SANGER: Inhibition of human D-247MG cell growth in a cell viability assay.

[5] = system: ES1; type: functional, cell-based, Homo sapiens; conditions: Homo sapiens, ES1;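 further: growth inhibition of ES1 cells, read out with a cell viability assay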
Description: SANGER: Inhibition of human ES1 cell growth in a cell viability assay.

[6] = system: ESS-1; type: functional, cell-based, Homo sapiens; conditions: Homo sapiens, ESS-1;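 further: growth inhibition of human ESS-1 cells, read out by a cell viability assay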
Description: SANGER: Inhibition of human ESS-1 cell growth in a cell viability assay.

[7] = system: HCC1187; type: functional, cell-based, Homo sapiens; conditions: Homo sapiens, HCC1187;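 further: growth inhibition of HCC1187 cells, read out with a cell viability assay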
Description: SANGER: Inhibition of human HCC1187 cell growth in a cell viability assay.

[8] = system: HCC1395; type: functional, cell-based, Homo sapiens; conditions: Homo sapiens, HCC1395;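 further: growth inhibition of HCC1395 cells, read out by a cell viability assay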
Description: SANGER: Inhibition of human HCC1395 cell growth in a cell viability assay.

[9] = system: J-RT3-T3-5; type: functional, cell-based; conditions: Homo sapiens;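 further: cell viability assay measuring growth inhibition of human J-RT3-T3-5 cells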
Description: SANGER: Inhibition of human J-RT3-T3-5 cell growth in a cell viability assay.

[10] = system: JVM-3; type: functional, cell-based; conditions: Homo sapiens;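 further: growth inhibition of human JVM-3 cells, read out with a cell viability assay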
Description: SANGER: Inhibition of human JVM-3 cell growth in a cell viability assay.

[11] = system: KINGS-1; type: functional, cell-based, Homo sapiens; conditions: Homo sapiens, KINGS-1;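 further: cell viability assay measuring suppression of KINGS-1 cell growth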
Description: SANGER: Inhibition of human KINGS-1 cell growth in a cell viability assay.

[12] = system: KNS-42; type: functional, cell-based, Homo sapiens; conditions: Homo sapiens, KNS-42;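 further: growth inhibition of KNS-42 cells, read out with a cell viability assay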
Description: SANGER: Inhibition of human KNS-42 cell growth in a cell viability assay.

[13] = system: KS-1; type: functional, cell-based, Homo sapiens; conditions: Homo sapiens, KS-1;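 further: growth inhibition of KS-1 cells, read out with a cell viability assay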
Description: SANGER: Inhibition of human KS-1 cell growth in a cell viability assay.

[14] = system: KYSE-70 cell line; type: functional, cell-based, Homo sapiens; conditions: Homo sapiens, KYSE-70;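 further: cell viability assay read-out, with IC50 expressing suppression of KYSE-70 cell growth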
Description: SANGER: Inhibition of human KYSE-70 cell growth in a cell viability assay.

[15] = system: LAN-6; type: functional, cell-based, Homo sapiens; conditions: Homo sapiens, LAN-6;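 further: growth inhibition of LAN-6 cells, determined with a cell viability assay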
Description: SANGER: Inhibition of human LAN-6 cell growth in a cell viability assay.

[16] = system: LB373-MEL-D; type: functional, cell-based, Homo sapiens; conditions: Homo sapiens, LB373-MEL-D;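 further: growth inhibition of the cell line, read out in a cell viability assay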
Description: SANGER: Inhibition of human LB373-MEL-D cell growth in a cell viability assay.

[17] = system: LN-405; type: functional, cell-based, Homo sapiens; conditions: Homo sapiens, LN-405
Description: SANGER: Inhibition of human LN-405 cell growth in a cell viability assay.

[18] = system: MG-63; type: functional, cell-based, Homo sapiens; conditions: Homo sapiens, MG-63;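 further: growth inhibition of human MG-63 cells, read out with a cell viability assay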
Description: SANGER: Inhibition of human MG-63 cell growth in a cell viability assay.

[19] = system: MPP-89; type: functional, cell-based, Homo sapiens; conditions: Homo sapiens, MPP-89;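 further: growth inhibition of human MPP-89 cells, read out with a cell viability assay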
Description: SANGER: Inhibition of human MPP-89 cell growth in a cell viability assay.

[20] = system: NB5; type: functional, cell-based, Homo sapiens; conditions: Homo sapiens, NB5;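 further: growth inhibition of NB5 cells, read out as cell viability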
Description: SANGER: Inhibition of human NB5 cell growth in a cell viability assay.

[21] = system: NCI-H2087; type: functional, cell-based, Homo sapiens; conditions: Homo sapiens, NCI-H2087;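 further: growth inhibition determined with a cell viability readout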
Description: SANGER: Inhibition of human NCI-H2087 cell growth in a cell viability assay.

[22] = system: NCI-H2347; type: functional, cell-based, Homo sapiens; conditions: Homo sapiens, NCI-H2347;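 further: growth inhibition of the cell line, read out with a cell viability assay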
Description: SANGER: Inhibition of human NCI-H2347 cell growth in a cell viability assay.

[23] = system: NCI-H2405; type: functional, cell-based, Homo sapiens; conditions: Homo sapiens, NCI-H2405;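 further: growth inhibition of the human cell line, read out with a cell viability assay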
Description: SANGER: Inhibition of human NCI-H2405 cell growth in a cell viability assay.

[24] = system: NCI-H292; type: functional, cell-based, Homo sapiens; conditions: Homo sapiens, NCI-H292;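 further: growth inhibition of NCI-H292 cells, read out with a cell viability assay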
Description: SANGER: Inhibition of human NCI-H292 cell growth in a cell viability assay.

[25] = system: NCI-H358; type: functional, cell-based, Homo sapiens; conditions: Homo sapiens, NCI-H358;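 further: growth inhibition of NCI-H358 human cells, read out with a cell viability assay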
Description: SANGER: Inhibition of human NCI-H358 cell growth in a cell viability assay.

[26] = system: NCI-H661; type: functional, cell-based, Homo sapiens; conditions: Homo sapiens, NCI-H661;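 further: cell viability assay read-out, IC50 being the concentration that inhibits growth of the cells by half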
Description: SANGER: Inhibition of human NCI-H661 cell growth in a cell viability assay.

[27] = system: NCI-H82; type: functional, cell-based; conditions: Homo sapiens;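 further: growth inhibition of NCI-H82 cells, measured with a cell viability readout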
Description: SANGER: Inhibition of human NCI-H82 cell growth in a cell viability assay.

[28] = system: NKM-1; type: functional, cell-based; conditions: Homo sapiens;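 further: growth inhibition of NKM-1 cells, read out with a cell viability assay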
[29] = system: OCUB-M; type: functional, cell-based, Homo sapiens; conditions: Homo sapiens, OCUB-M;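 further: growth inhibition of the cancer cell line, read out through a cell viability assay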
Description: SANGER: Inhibition of human OCUB-M cell growth in a cell viability assay.

[30] = system: OVCAR-8; type: functional, cell-based, Homo sapiens; conditions: Homo sapiens, OVCAR-8;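 further: growth inhibition of human OVCAR-8 cells, read out by a cell viability assay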
Description: SANGER: Inhibition of human OVCAR-8 cell growth in a cell viability assay.

[31] = system: RVH-421; type: functional, cell-based, Homo sapiens; conditions: Homo sapiens, RVH-421
Description: SANGER: Inhibition of human RVH-421 cell growth in a cell viability assay.

[32] = system: SAS; type: functional, cell-based, Homo sapiens; conditions: Homo sapiens, SAS;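 further: growth inhibition of SAS cells, read out with a cell viability assay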
[33] = system: SF-126; type: functional, cell-based, Homo sapiens; conditions: Homo sapiens, SF-126;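 further: growth inhibition of human SF126 cells, read out with a cell viability assay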
Description: SANGER: Inhibition of human SF126 cell growth in a cell viability assay.

[34] = system: SK-LU-1; type: functional, cell-based, Homo sapiens; conditions: Homo sapiens, SK-LU-1;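 further: cell viability assay measuring growth inhibition of human SK-LU-1 cells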
Description: SANGER: Inhibition of human SK-LU-1 cell growth in a cell viability assay.

[35] = system: SW1990; type: functional, cell-based, Homo sapiens; conditions: Homo sapiens, SW1990;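 further: cell growth inhibition determined with a viability assay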
Description: SANGER: Inhibition of human SW1990 cell growth in a cell viability assay.

[36] = system: SW626; type: functional, cell-based, Homo sapiens; conditions: Homo sapiens, SW626;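 further: growth inhibition of SW626 cells, measured with a cell viability assay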
Description: SANGER: Inhibition of human SW626 cell growth in a cell viability assay.

[37] = system: SW872; type: functional, cell-based, Homo sapiens; conditions: Homo sapiens, SW872;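 further: growth inhibition of SW872 cells, read out by a viability assay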
Description: SANGER: Inhibition of human SW872 cell growth in a cell viability assay.

[38] = system: SAOS-2; type: functional, cell-based, Homo sapiens; conditions: Homo sapiens, SAOS-2;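 further: growth inhibition of human Saos-2 cells determined by a cell viability assay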
Description: SANGER: Inhibition of human Saos-2 cell growth in a cell viability assay.

[39] = system: SiHa; type: functional, cell-based, Homo sapiens; conditions: Homo sapiens, SiHa;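 further: Viability-based readout of growth inhibition in SiHa cells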
Description: SANGER: Inhibition of human SiHa cell growth in a cell viability assay.

[40] = system: TCC-SUP; type: functional, cell-based, Homo sapiens; conditions: Homo sapiens, TCC-SUP;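 further: growth inhibition of TCC-SUP cells, read out with a cell viability assay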
Description: SANGER: Inhibition of human TCCSUP cell growth in a cell viability assay.

[41] = system: ACN; type: functional, cell-based, Homo sapiens; conditions: Homo sapiens, ACN;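 further: growth inhibition of the human ACN cell line, read out via cell viability testing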
Description: SANGER: Inhibition of human ACN cell growth in a cell viability assay.

[42] = system: AN3-CA; type: functional, cell-based; conditions: Homo sapiens;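 further: growth inhibition of human AN3-CA cells measured by a cell viability assay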
Description: SANGER: Inhibition of human AN3-CA cell growth in a cell viability assay.

[43] = system: BPH-1; type: functional, cell-based, Homo sapiens; conditions: Homo sapiens, BPH-1;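 further: cell viability assay measuring growth inhibition of human BPH-1 cells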
Description: SANGER: Inhibition of human BPH-1 cell growth in a cell viability assay.

[44] = system: C32; type: functional, cell-based, Homo sapiens; conditions: Homo sapiens, C32;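 further: cell viability assay, with IC50 reflecting inhibition of C32 cell growth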
Description: SANGER: Inhibition of human C32 cell growth in a cell viability assay.

[45] = system: C3A; type: functional, cell-based, Homo sapiens; conditions: Homo sapiens, C3A;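 further: growth inhibition of C3A human cells, quantified with a cell viability readout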
Description: SANGER: Inhibition of human C3A cell growth in a cell viability assay.

[46] = system: CAKI-1; type: functional, cell-based, Homo sapiens; conditions: Homo sapiens, CAKI-1;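 further: growth inhibition of CAKI-1 cells, measured by a cell viability assay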
Description: SANGER: Inhibition of human CAKI-1 cell growth in a cell viability assay.

[47] = system: CAL-62; type: functional, cell-based, Homo sapiens; conditions: Homo sapiens, CAL-62;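 further: growth inhibition of CAL-62 cells, read out with a cell viability assay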
Description: SANGER: Inhibition of human CAL-62 cell growth in a cell viability assay.

[48] = system: CAL-85-1; type: functional, cell-based; conditions: Homo sapiens;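 further: growth inhibition of human CAL-85-1 cells, read out with a cell viability assay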
[49] = system: TE-8; type: functional, cell-based, Homo sapiens; conditions: Homo sapiens, TE-8;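 further: growth inhibition of TE-8 cells, measured with a cell viability readout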
Description: SANGER: Inhibition of human TE-8 cell growth in a cell viability assay.

[50] = system: no-10; type: functional, cell-based, Homo sapiens; conditions: Homo sapiens;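 further: growth inhibition of no-10 cells, read out with a cell viability assay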
Description: SANGER: Inhibition of human no-10 cell growth in a cell viability assay.

[51] = system: EOL1; type: functional, cell-based; conditions: Homo sapiens;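 further: growth inhibition of EoL-1 cells, read out by a cell viability assay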
Description: SANGER: Inhibition of human EoL-1-cell cell growth in a cell viability assay.

O=c1cc(-c2cccc3c2Sc2ccccc2S3)oc(N2CCOCC2)c1 [KU-55933]
IC50 [1]: > 10 µM
IC50 [2]: > 10 µM
IC50 [3]: > 10 µM
IC50 [4]: > 10 µM
IC50 [5]: > 10 µM
IC50 [6]: > 10 µM
IC50 [7]: > 10 µM
IC50 [8]: > 10 µM
IC50 [9]: > 10 µM
IC50 [10]: > 10 µM
IC50 [11]: > 10 µM
IC50 [12]: > 10 µM
IC50 [13]: > 10 µM
IC50 [14]: > 10 µM
IC50 [15]: > 10 µM
IC50 [16]: > 10 µM
IC50 [17]: > 10 µM
IC50 [18]: > 10 µM
IC50 [19]: > 10 µM
IC50 [20]: > 10 µM
IC50 [21]: > 10 µM
IC50 [22]: > 10 µM
IC50 [23]: > 10 µM
IC50 [24]: > 10 µM
IC50 [25]: > 10 µM
IC50 [26]: > 10 µM
IC50 [27]: > 10 µM
IC50 [28]: > 10 µM
IC50 [29]: > 10 µM
IC50 [30]: > 10 µM
IC50 [31]: > 10 µM
IC50 [32]: > 10 µM
IC50 [33]: > 10 µM
IC50 [34]: > 10 µM
IC50 [35]: > 10 µM
IC50 [36]: > 10 µM
IC50 [37]: > 10 µM
IC50 [38]: > 10 µM
IC50 [39]: > 10 µM
IC50 [40]: > 10 µM
IC50 [41]: > 10 µM
IC50 [42]: > 10 µM
IC50 [43]: > 10 µM
IC50 [44]: > 10 µM
IC50 [45]: > 10 µM
IC50 [46]: > 10 µM
IC50 [47]: > 10 µM
IC50 [48]: > 10 µM
IC50 [49]: > 10 µM
IC50 [50]: > 10 µM

Cc1ccc(Nc2nccc(N(C)c3ccc4c(C)n(C)nc4c3)n2)cc1S(N)(=O)=O [PAZOPANIB]
IC50 [1]: > 8 µM
IC50 [2]: > 8 µM
IC50 [3]: > 8 µM
IC50 [5]: > 8 µM
IC50 [6]: 1.6 µM
IC50 [51]: < 0.0312 µM
IC50 [7]: > 8 µM
IC50 [8]: 2.58 µM
IC50 [9]: > 8 µM
IC50 [10]: > 8 µM
IC50 [11]: > 8 µM
IC50 [12]: > 8 µM
IC50 [13]: > 8 µM
IC50 [14]: > 8 µM
IC50 [15]: > 8 µM
IC50 [16]: > 8 µM
IC50 [17]: > 8 µM
IC50 [18]: 1 µM
IC50 [19]: > 8 µM
IC50 [20]: > 8 µM
IC50 [21]: > 8 µM
IC50 [22]: > 8 µM
IC50 [23]: > 8 µM
IC50 [24]: > 8 µM
IC50 [25]: > 8 µM
IC50 [26]: > 8 µM
IC50 [27]: > 8 µM
IC50 [28]: > 8 µM
IC50 [29]: 3.31 µM
IC50 [30]: > 8 µM
IC50 [31]: > 8 µM
IC50 [32]: > 8 µM
IC50 [33]: 2.47 µM
IC50 [34]: 3.19 µM
IC50 [35]: > 8 µM
IC50 [36]: > 8 µM
IC50 [37]: > 8 µM
IC50 [38]: > 8 µM
IC50 [39]: > 8 µM
IC50 [40]: > 8 µM
IC50 [41]: > 8 µM
IC50 [42]: 0.0101 µM
IC50 [43]: > 8 µM
IC50 [44]: > 8 µM
IC50 [45]: > 8 µM
IC50 [46]: > 8 µM
IC50 [47]: > 8 µM
IC50 [48]: > 8 µM
IC50 [49]: 6.16 µM
IC50 [50]: > 8 µM

Cn1cc(C2=C(c3ccc(Cl)cc3Cl)C(=O)NC2=O)c2ccccc21 [SB-216763]
IC50 [1]: > 10 µM
IC50 [2]: > 10 µM
IC50 [3]: > 10 µM
IC50 [4]: > 10 µM
IC50 [5]: > 10 µM
IC50 [6]: 9.6 µM
IC50 [7]: > 10 µM
IC50 [8]: > 10 µM
IC50 [9]: > 10 µM
IC50 [10]: > 10 µM
IC50 [11]: > 10 µM
IC50 [12]: > 10 µM
IC50 [13]: > 10 µM
IC50 [14]: > 10 µM
IC50 [15]: > 10 µM
IC50 [16]: > 10 µM
IC50 [17]: > 10 µM
IC50 [18]: > 10 µM
IC50 [19]: > 10 µM
IC50 [20]: > 10 µM
IC50 [21]: > 10 µM
IC50 [22]: > 10 µM
IC50 [23]: > 10 µM
IC50 [24]: > 10 µM
IC50 [25]: > 10 µM
IC50 [26]: > 10 µM
IC50 [27]: > 10 µM
IC50 [28]: > 10 µM
IC50 [29]: > 10 µM
IC50 [30]: > 10 µM
IC50 [31]: > 10 µM
IC50 [32]: > 10 µM
IC50 [33]: > 10 µM
IC50 [34]: > 10 µM
IC50 [35]: > 10 µM
IC50 [36]: > 10 µM
IC50 [37]: > 10 µM
IC50 [38]: > 10 µM
IC50 [39]: > 10 µM
IC50 [40]: > 10 µM
IC50 [41]: > 10 µM
IC50 [42]: > 10 µM
IC50 [43]: > 10 µM
IC50 [44]: > 10 µM
IC50 [45]: > 10 µM
IC50 [46]: > 10 µM
IC50 [47]: > 10 µM
IC50 [48]: > 10 µM
IC50 [49]: > 10 µM
IC50 [50]: > 10 µM

Cn1cncc1[C@@](N)(c1ccc(Cl)cc1)c1ccc2c(c1)c(-c1cccc(Cl)c1)cc(=O)n2C [TIPIFARNIB]
IC50 [1]: 12.2 µM
IC50 [2]: > 16 µM
IC50 [3]: 13.8 µM
IC50 [5]: 1.96 µM
IC50 [6]: > 16 µM
IC50 [51]: 6.71 µM
IC50 [7]: 7.61 µM
IC50 [8]: 14.9 µM
IC50 [9]: 1.32 µM
IC50 [10]: > 16 µM
IC50 [11]: > 16 µM
IC50 [12]: 5.76 µM
IC50 [13]: 0.77 µM
IC50 [14]: 1.41 µM
IC50 [15]: 14.1 µM
IC50 [16]: 8.85 µM
IC50 [17]: > 16 µM
IC50 [18]: 1.84 µM
IC50 [19]: > 16 µM
IC50 [20]: > 16 µM
IC50 [21]: 2.28 µM
IC50 [22]: > 16 µM
IC50 [23]: 9.6 µM
IC50 [24]: 9.28 µM
IC50 [25]: 4.92 µM
IC50 [26]: 7.5 µM
IC50 [27]: 9.1 µM
IC50 [28]: 0.774 µM
IC50 [29]: 0.472 µM
IC50 [30]: 4.45 µM
IC50 [31]: > 16 µM
IC50 [32]: > 16 µM
IC50 [33]: 3.88 µM
IC50 [34]: 3.55 µM
IC50 [35]: 12.4 µM
IC50 [36]: 1.37 µM
IC50 [37]: 1.45 µM
IC50 [38]: > 16 µM
IC50 [39]: > 16 µM
IC50 [40]: 5.8 µM
IC50 [41]: 1.46 µM
IC50 [42]: 1 µM
IC50 [43]: 2.24 µM
IC50 [44]: > 16 µM
IC50 [45]: 4.64 µM
IC50 [46]: > 16 µM
IC50 [47]: 1.79 µM
IC50 [48]: 1.25 µM
IC50 [49]: 0.928 µM
IC50 [50]: > 16 µM
